Reference: publication PMC5841658, “Anti-cancer characteristics and ototoxicity of platinum(II) amine complexes with only one leaving ligand” (PLoS ONE, 2018)
Several values for one entry are separate records, joined by “and”; a condition that tells them apart may be missing. Identical values can stand only once.

Assays:
[1] = system: zebrafish saccule hair cells; experiment: Hair cell quantification, saccule; format: in vivo, Danio rerio; conditions: 25 mg/kg i.p., 48 hours; for effect on hair cell density in four regions of the saccule compared to vehicle: 5, 25, 50, 75% regions
Experimental: Zebrafish (Danio rerio) were purchased from a commercial supplier (Segrest Farms, Gibsonton, FL) and maintained in the animal facility of Western Kentucky University according to a protocol approved by the Institutional Animal Care and Use Committee. All zebrafish used in this study were a mix of male and female adult animals at least 6 months of age and were maintained according to standard methods.
After injection, fish were returned to holding tanks for either 24 or 48 hours and then subjected to hearing tests followed by hair cell quantification analysis.
Hair cell counts were performed from specific regions of the zebrafish saccule and utricle using established procedures. […] Prior to dissection, heads were rinsed three times for 10 minutes each at room temperature in phosphate buffer (pH 7.4, LabChem, Pittsburgh, PA) and the inner ear epithelia (saccule and utricle) were then carefully dissected out and trimmed. […] Tissue samples were then placed on glass slides and nuclei were labelled with Prolong Gold antifade reagent (4’,6-diamidino-2-phenylindole [DAPI], Life Technologies, Carlsbad, CA) and a cover-slip was placed over the samples for microscopy.
Saccule and utricle samples were viewed through the FITC filter of a Zeiss Axioplan2 epifluorescence microscope (Carl Zeiss, Jena, Germany) at 20X magnification and were then photographed using an AxioCam MRm camera. Cell counts were made from four regions of the saccule (5%, 25%, 50%, 75%) along the rostral-caudal length of the organ by placing a 50 μm x 50 μm box at each location and using the microscope cell counter feature. In the utricular samples, cell counts were made from three equidistant 50 μm x 50 μm boxes in both the extrastriolar and striolar regions.
(§1) GraphPad Prism v6 (La Jolla, CA) was used for all statistical analysis. Nuclear fraction platinum uptake as a total percent of combined nuclear and cytosolic uptake was analyzed using a one-way ANOVA (Brown-Forsyth test; p ≤ 0.05). IC50 values were calculated in Prism using the sigmoidal, 4PL, x is log(concentration) analysis feature or were calculated from Prism derived values using the equation y = mx + b. MTT assay standard deviation values were calculated using ED50plus v1.0 online software. AEP threshold data were analyzed by two-way ANOVA (Dunnett’s multiple comparisons test; p ≤ 0.05) and hair cell quantification data by two-way ANOVA (Tukey’s multiple comparisons test; p ≤ 0.05). AEP temporary threshold shifts (TTS) were calculated by subtracting the mean vehicle threshold for each frequency from each treatment threshold. TTS data were averaged across frequencies for each treatment and were analyzed by one-way ANOVA (Tukey’s multiple comparisons test; p ≤ 0.05).

[2] = system: U-138 MG (HTB-16) glioblastoma cancer cell line; experiment: MTT cellular viability assay, HTB16; format: cell-based; conditions: HTB16 (glioma), 72 hours, ± standard deviation
Experimental: (§2) Cell lines were obtained from American Type Culture Collection (ATCC, Manassas, VA). […] Caco-2 (ATCC: HTB-37) colorectal cancer was grown in EMEM with 20% FBS and 1% penicillin/streptomycin. All cell lines were incubated at 37°C in 5% CO2 with passaging every 4–7 days. Cell culture media and supplements were obtained from ATCC, Atlanta Biologicals (Flowery Branch, GA), Mediatech (Tewksbury, MA), Fisher Scientific (Waltham, MA), Gibco (Gaithersburg, MD) and Sigma-Aldrich.
(§3) The MTT (3-(4,5-dimethylthiazol-2-yl)-2,5-diphenyltetrazolium bromide) cellular viability assay was performed in all three cancer cell lines and the non-cancer cell line. Following a protocol adapted from, cells were seeded at 5,000 cells per well in 96-well plates and incubated at 37°C in 5% CO2 in F-12K Medium or EMEM with FBS supplementation and 1% penicillin/streptomycin for 24 hours. Then, wells were treated in replicates of six according to a concentration series (500, 50, 5, 0.5, 0.05 μM) of specific platinum complexes for 72 hours. A negative control (media only), positive control (Triton X-100) and series of blanks were simultaneously performed. The MTT assay was run for 2 hours, then well contents were rapidly evacuated out and all wells were treated with MTT solubilization solution [10% Triton X-100 in acidic (0.1N HCl) isopropanol] for 15 minutes before the plates were read using a BioTek Synergy HT microplate plate reader (570 nm and 690 nm absorbance wavelengths). Reagents, cell culture media and supplements were obtained from ATCC, Atlanta Biologicals, Mediatech, Fisher Scientific, Gibco and Sigma-Aldrich.
as §1

[3] = system: Caco-2 colorectal cancer cell line; experiment: MTT cellular viability assay, Caco2; format: cell-based; conditions: 72 hours, ± standard deviation
Experimental: as §2, §3, §1

[4] = system: IMR-90 lung fibroblast control cell line; experiment: MTT cellular viability assay, IMR90; format: cell-based; conditions: IMR90 (fibroblast, non-cancer), 72 hours, ± standard deviation
Experimental: as §2, §3, §1

5'-GMP = experiment: Kinetic 5'-GMP assay (1H NMR, rate of reaction of platinum complex with 5'-GMP); format: biochemical; conditions: D2O, pH 7, 25°C; for Rate constant for the reaction of 5'-GMP with the platinum(II) complex: excess platinum, fitted first order in each reactant
Experimental: The reaction of each platinum compound with 5'-GMP (Acros) was monitored using ^1H NMR spectroscopy to observe the disappearance of the H8 signal of the unreacted 5'-GMP at ≈8 ppm and the appearance of a product signal ≈0.5–1.0 ppm downfield of the unreacted 5'-GMP. The reaction was conducted with excess platinum compound present in each case. A 10 mM solution of 5'-GMP and a 10–20 mM solution of the platinum(II) compound were prepared separately in D2O. The pH (uncorrected for the effects of deuterium) of each solution was adjusted to 7, and the samples were equilibrated to 25°C in a water bath. Aliquots of the two solutions were combined and placed in an NMR tube; typically, the final concentrations of platinum was 5–18 mM and the concentration of 5'-GMP was 1 mM (except for the [Pt(dien)Cl]^+ reaction, where it was 0.5 mM). Samples were maintained at 25°C throughout the NMR experiment. The H8 resonances were integrated and the data was fitted to an equation that was first order in each reactant using DynaFit to determine rate constants. At least two runs were conducted for each platinum compound using fresh samples.

Compound	effect on hair cell density in four regions of the saccule compared to vehicle [1]	IC50 [2] [µM]	IC50 [3] [µM]	IC50 [4] [µM]	Relative rate (rate constant divided by the rate constant for [Pt(dien)Cl]^+) (5'-GMP)	Rate constant for the reaction of 5'-GMP with the platinum(II) complex (5'-GMP)	saccule hair cell density, % of control ([1]; 50% location along rostral-caudal axis)	fold reduction in the rate relative to [Pt(dien)Cl]^+ (5'-GMP)	Rate constant for the reaction of 5'-GMP with the platinum(II) complex (5'-GMP; listed as phenanthriplatin)
[Cl][Pt-2]12[NH2+]CC[NH+]1CC[NH2+]2 (stereo not drawn) [[Pt(dien)Cl]^+, Pt(diethylenetriamine)Cl]	no significant reduction in hair cell bundles	209 ± 42.3	41.5 ± 0.72	56 ± 6.1	1	3.9 ± 0.1 x 10^−1 M^-1s^-1 and 3.9 (+/- 0.1) x 10^−1 M^-1s^-1			
phenanthriplatin	reduction only at 50%	2.41 ± 0.11	1.6 ± 1.22	1.24 ± 0.48	0.041	1.63 (+/- .02) x 10^−2 M^-1s^-1	64.8 % of control	~ 25 fold	1.63 ± 0.02 x 10^-2 M^-1s^-1
